In US8389792B2, “Compositions and methods for the treatment and prevention of ulcerative colitis and colon cancer and screening methods to identify same” (Cornell University, priority 2007, dated 2013):
“Also recorded” adds a separate entry of the source.

What was measured:
Proteus mirabilis [1] = assay: Quantitative fecal culture of Gram-negative aerobes on MacConkey's medium; format: in vivo; conditions: for fecal levels of P. mirabilis after antibiotic: 4-week old TRUC mice, feces cultured 1d before and 1d after antibiotic, limit of detection 4.4 log10 CFU/g
Description: (§1) Individual mice were placed in autoclaved plastic cages. Fecal pellets were transferred immediately upon expulsion into capped microfuge tubes. 4-6 pellets were collected per mouse per time point. All Rag2^−/− mice in FIG. 2F were sampled twice over a 3d period for each weekly time point. Pellets were resuspended in sterile PBS and 10-fold serial dilutions were generated, plated on MacConkey's medium, and incubated in ambient air at 37° C. overnight. Biochemical assays with the API-20E panel (bioMerieux) confirmed that colony morphology correlated with Klebsiella pneumoniae, Proteus mirabilis, or E. coli: therefore, these organisms were subsequently identified based on their colony morphotypes.
(§2) The lower limit of detection for these studies was 10^4.4 cfu/gram fecal dry weight. A minimum of 30 colonies or a maximum of 300 colonies was counted at a given dilution and the serial dilution had to appropriately reflect the colony counts for the quantitative counts to pass our quality control standards.
(§3) Mice were treated with the following antibiotics dissolved in their autoclaved drinking water as indicated: ampicillin (1 g/L; Roche), vancomycin (500 mg/L; Sigma), neomycin sulfate (1 g/L; Sigma), metronidazole (1 g/L; Sigma, solubilized with 15 ml of 0.1N acetic acid/L), and gentamicin (2 g/L; Cell Gro); and fluid intake monitored.
(§4) Dextran sulfate sodium (M.W. 40-50,000; USB Cat# 14489) was dissolved in drinking water at a final concentration of 4% (w/v) and provided for 7d.
(§5) anti-TNF-α (clone TN3-19.12), a hamster anti-mouse TNF-α neutralizing IgGl antibody and control Ab (hamster anti-GST IgGl) were purchased from Leinco Technologies. Mice were injected with these reagents (15 mg/kg) on a weekly basis for four weeks (Garrett et al., 2007).
(§6) Peripheral lymph nodes were harvested and cell suspensions were generated as previously described. Fluorescence activated cell sorted C114^+CD62L^h,CD25^+ cells were collected and resuspended in PBS. 75,000 cells were injected per mouse. An equivalent amount of PBS was injected in the control group. 10 mice were injected with T-regulatory cells and nine mice with PBS. All mice were 4 weeks of age at the time of injection (Garrett et al., 2007). This experiment was stopped when the mice were 12 weeks old (as opposed to 14 weeks of age in the TNF-a blockade experiment), because two mice in the control group became quite moribund from their colitis, and euthanasia was indicated as per our animal protocol.

Klebsiella pneumoniae [2] = assay: as above; format: in vivo; conditions: for fecal levels of K. pneumoniae after antibiotic: 4-week old TRUC mice, feces cultured 1d before and 1d after antibiotic, limit of detection 4.4 log10 CFU/g
Description: as §1, §2, §3, §4, §5, §6

[3] = system: T-bet−/−×RAG2−/− (TRUC) mice; assay: Histologic colitis scoring of colons from treated TRUC mice; format: in vivo, mouse; conditions: for TRUC colitis (histologic colitis scores, in vivo antibiotic sensitivity): TRUC mice treated four weeks with single antibiotic in drinking water
Description: For studies of the progeny of antibiotic treated animals, progeny were weaned at 21 days and examined six weeks after weaning. These animals had no exposure to antibiotics after weaning.
Colons were removed from euthanized mice and dissected free from the anus to distal to the cecum. Colonic contents were removed and colons were cleaned with phosphate buffer saline or Hanks' balanced salt solution prior to fixation in 4% PFA or 10% neutral buffered formalin (NBF) followed by routine paraffin embedding. After paraffin embedding, […] sections were cut and stained with hematoxylin and eosin or as noted.
Sections were examined and the degree of colitis was blindly scored. Each of four histologic parameters were scored as absent (0), mild (1), moderate (2), or severe (3): mononuclear cell infiltraton, polymorphonuclear cell infiltration, epithelial hyperplasia, and epithelial injury, similar to previous studies (Neurath et al., 2002b). Colons from dextran sodium sulfate treated mice were scored using the following parameters scored on a scale of 0-4: percentage of colon involved by inflammation, percentage of crypt loss, presence of lymphoid follicles, edema, erosions, and density of inflammatory cells. The scores for the individual parameters were summed to give a total severity score. […]
Mice were treated as described previously (Fagarasan, S., et al. (2002). Science 298, 1424-1427; Rakoff-Nahoum, S., et al. (2004). Cell 118, 229-241). Alterations are as noted: in brief, animals were provided ampicillin (1 g/L; Roche), vancomycin (1 gm/L; Henry Schein, Inc. (Hospira, Inc.)), neomycin sulfate (1 g/L; Sigma (Teva Pharmaceuticals)), and metronidazole (1 g/L; Sigma) dissolved in their autoclaved drinking water and their fluid intake was monitored. […]
as §3, with “monitored. […]” for “monitored.”

Proteus mirabilis [4] = assay: TNF-α bacterial co-culture (growth kinetics); format: cell-based; conditions: in vitro mono-culture, 6 h, colony counts at 2 h intervals
Description: (§7) TNF-a (final concentration 100u,g/mL culture medium), or PBS alone, was added to cultures of the designated microbes and bacterial concentrations (efu/ml) were followed during a 6 h incubation (37° C. with agitation in ambient air) at 2 h intervals. Bacteria were cultured in Luria Broth and plated on MacConkey's medium.

Klebsiella pneumoniae [5] = assay: TNF-α bacterial co-culture (growth kinetics); format: cell-based; conditions: in vitro mono-culture, 6 h, colony counts at 2 h intervals
Description: as §7

[6] = 8 week-old WT and Rag2−/− mice, 4% in drinking water one week, samples before and 1d after

Molecule | fecal levels of P. mirabilis after antibiotic (Proteus mirabilis [1]) | fecal levels of K. pneumoniae after antibiotic (Klebsiella pneumoniae [2]) | TRUC colitis (histologic colitis scores, in vivo antibiotic sensitivity) [3] | further results
gentamicin | below our limit of detection | below our limit of detection | able to ameliorate and cure TRUC | 
Cc1ncc([N+](=O)[O-])n1CCO [metronidazole] | below our limit of detection | below our limit of detection |  | TRUC colitis (histologic scores) ([3]; six week old TRUC mice, antibiotics 1 g/L each in drinking water for six weeks): cured the colitis
Dextran sulfate sodium |  |  |  | culturable P. mirabilis in fecal microbiota after dextran sulfate sodium (Proteus mirabilis [1]; [6]): did not detect; culturable K. pneumoniae in fecal microbiota after dextran sulfate sodium (Klebsiella pneumoniae [2]; [6]): did not detect
TNF-a |  |  |  | growth kinetics of P. mirabilis in vitro (Proteus mirabilis [4]): did not affect the growth kinetics; growth kinetics of K. pneumoniae in vitro (Klebsiella pneumoniae [5]): did not affect the growth kinetics
CN[C@H](CC(C)C)C(=O)N[C@H]1C(=O)N[C@@H](CC(N)=O)C(=O)N[C@H]2C(=O)N[C@H]3C(=O)N[C@H](C(=O)N[C@H](C(=O)O)c4cc(O)cc(O)c4-c4cc3ccc4O)[C@H](O)c3ccc(c(Cl)c3)Oc3cc2cc(c3O[C@@H]2O[C@H](CO)[C@@H](O)[C@H](O)[C@H]2O[C@H]2C[C@](C)(N)[C@H](O)[C@H](C)O2)Oc2ccc(cc2Cl)[C@H]1O [vancomycin] |  |  | does not; also recorded: neither abolished colitis | 
